Our source for the pest or weed control values is patent US20110053966A1, “SYNERGISTIC FUNGICIDAL COMPOSITIONS CONTAINING A 5-FLUOROPYRIMIDINE DERIVATIVE FOR FUNGAL CONTROL IN CEREALS” (DOW AGROSCIENCES LLC, priority 2009, published 2011).

The test system of test [1] is Septoria tritici (SEPTTR). Briefly: 1-day protectant test (1DP) vs. leaf blotch of wheat. The format is in vivo. The note with it: Zymoseptoria tritici, 1DP SEPTTR, read-out: % DC Obs (percent disease control observed). As for the experimental part:
(§1) Evaluation of Curative and Protectant Activity of Fungicide Mixtures vs. Leaf Blotch of Wheat (Mycosphaerella graminicola; anamorph: Septoria tritici; Bayer code: SEPTTR)
(§2) Wheat plants (variety Yuma) were grown from seed in a greenhouse in plastic pots with a surface area of 27.5 square centimeters (cm2) containing 50% mineral soil/50% soil-less Metro mix, with 8-12 seedlings per pot. The plants were employed for testing when the first leaf was fully emerged, which typically took 7 to 8 days after planting. Test plants were inoculated with an aqueous spore suspension of Septoria tritici either 3-days prior to (3-day curative test; 3DC) or 1-day after fungicide treatments (1-day protectant test; 1DP). After inoculation the plants were kept at 100% relative humidity (one day in a dark dew chamber followed by two days in a lighted mist chamber) to permit spores to germinate and infect the leaf. The plants were then transferred to a greenhouse until disease symptoms were fully expressed.
(§3) For the mixture studies with compound of Formula IA: Treatments consisted of fungicides, including a compound of Formula IA, epoxiconazole, prothioconazole, azoxystrobin, pyraclostrobin, penthiopyrad, isopyrazam, bixafen, boscalid, prochloraz, chlorothalonil, and isobutyric acid (3S,6S,7R,8R)-8-benzyl-3-[(3-isobutyryloxymethoxy-4-methoxypyridine-2-carbonyl)-amino]-6-methyl-4,9-dioxo-[1,5]dioxonan-7-yl ester (compound A), applied either individually or as two-way mixtures with a compound of Formula IA. Technical grades of materials were dissolved in acetone to make stock solutions, which were then used to perform three-fold dilutions in acetone either for each individual fungicide component or for the two-way mixtures. Desired fungicide rates were obtained after mixing dilutions with nine volumes of water containing 110 parts per million (ppm) Triton X-100. Ten mL fungicide solutions were applied onto six pots of plants using an automated booth sprayer, which utilized two 6218-1/4 JAUPM spray nozzles operating at 20 pounds per square inch (psi) set at opposing angles to cover both leaf surfaces. All sprayed plants were allowed to air dry prior to further handling. Control plants were sprayed in the same manner with the solvent blank.
(§4) For the mixture studies with compound of Formula IB: Compound IB and the compound B or their two-way mixtures were diluted in three-fold series using suspension concentrate (SC) formulations in 0.1% Trycol 5941. Spray solutions were applied onto plants using a track sprayer with an application volume of 200 Liters/hectare (L/Ha).
(§5) When disease reached 80 to 100% on the control plants, infection levels were assessed on treated plants visually and scored on a scale of 0 to 100 percent. Percentage of disease control was then calculated using the ratio of disease on treated plants relative to control plants.
(§6) Colby's equation was used to determine the fungicidal effects expected from the mixtures. (See Colby, S. R. Calculation of the synergistic and antagonistic response of herbicide combinations. Weeds 1967, 15, 20-22.)
(§7) The following equation was used to calculate the expected activity of mixtures containing two active ingredients, A and B:
(§8) A=observed efficacy of active component A at the same concentration as used in the mixture;
(§9) B=observed efficacy of active component B at the same concentration as used in the mixture.

For test [2], the system named is Septoria tritici (SEPTTR). In words: 3-day curative test (3DC) vs. leaf blotch of wheat. To be noted: Zymoseptoria tritici, 3DC SEPTTR, read-out: % DC Obs (percent disease control observed). The format is in vivo. As for the experimental part: as §1, §2, §3, §4, §5, §6, §7, §8, §9

`O=C(Nc1ccccc1-c1ccc(Cl)cc1)c1cccnc1Cl` [Boscalid, 2-chloro-N-(4′-chloro[1,1′-biphenyl]-2-yl)-3-pyridinecarboxamide]: the figures for the pest or weed control at 1.8 ppm in test [1] (application rate 1.8 ppm) and in test [2] (application rate 1.8 ppm) were 5% and 12%, respectively. Also, the pest or weed control at 5.6 ppm in test [1] (application rate 5.6 ppm) stood at 30%; in test [2] (application rate 5.6 ppm), 34%.
